Assay results reported in US20140206681A1, “BTK INHIBITORS” (priority 2013, published 2014).

What was measured:
HeLa cells = assay: [3H]Adenosine uptake functional cellular assay; format: cell-based; conditions: Homo sapiens, HeLa, accumulation of [3H]adenosine into HeLa cells; compound range 10 μM to […]; read-out: Adenosine uptake inhibition IC50
In short: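 Inhibition of adenosine uptake was measured in HeLa cells (ATCC CCL-2) by following accumulation of tritiated adenosine. Cells were kept overnight at 37° C. with 5% (v/v) CO2, then switched to 40 μL HBSS plus 5% (v/v) FBS. 20 μL of 500 nM [3H]adenosine was added, and uptake was counted on a Topcount NXT reader.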

[1] = molecular target: T1, BTK enzyme (recombinant full-length BTK, hBTK) (Homo sapiens, UniProt Q06187); assay: BTK enzyme activity assay, LANCE TR-FRET; format: biochemical; conditions: 50 pM hBTK, 2 μM biotin-A5-peptide, 25 μM ATP; 60 min compound & enzyme incubation; read-out: IC50 BTK activity value
T1 construct: recombinant protein from baculovirus-transfected Sf9 cells: full-length BTK, 6HIS-tag cleaved; 6HIS (cleaved yes); made in house; host or cells: baculovirus-transfected Sf9 cells
T1 sequence (Q06187 whole entry): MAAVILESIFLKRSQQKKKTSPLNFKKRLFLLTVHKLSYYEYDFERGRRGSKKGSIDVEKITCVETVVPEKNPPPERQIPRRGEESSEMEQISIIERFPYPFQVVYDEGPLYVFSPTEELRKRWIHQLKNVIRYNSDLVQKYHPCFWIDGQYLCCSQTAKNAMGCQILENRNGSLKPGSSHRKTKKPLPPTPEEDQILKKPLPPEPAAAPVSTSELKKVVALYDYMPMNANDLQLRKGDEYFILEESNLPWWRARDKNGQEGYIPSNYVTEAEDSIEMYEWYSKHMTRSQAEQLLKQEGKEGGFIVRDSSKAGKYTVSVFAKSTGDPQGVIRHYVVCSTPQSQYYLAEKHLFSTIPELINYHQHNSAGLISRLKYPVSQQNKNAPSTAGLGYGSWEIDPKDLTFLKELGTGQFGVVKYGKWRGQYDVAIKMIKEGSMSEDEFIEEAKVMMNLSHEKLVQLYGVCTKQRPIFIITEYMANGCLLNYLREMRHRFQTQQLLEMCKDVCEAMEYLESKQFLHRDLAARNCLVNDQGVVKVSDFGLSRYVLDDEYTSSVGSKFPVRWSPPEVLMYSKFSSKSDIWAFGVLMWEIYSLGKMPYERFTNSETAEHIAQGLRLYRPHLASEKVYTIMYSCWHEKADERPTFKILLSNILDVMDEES

IC50 (HeLa cells)	IC50 [1]	Compound
116 nM	6.3 nM	C=C[C@@H]1OC(=O)N2C[C@H](c3nc(-c4ccc(C(=O)Nc5cc(C(F)(F)F)ccn5)cc4)c4c(N)nccn34)CC[C@@H]12 [Example 109, 4-{8-amino-3-[(1S,6R,8aS)-1-ethenyl-3-oxohexahydro[1,3]oxazolo[3,4-a]pyridin-6-yl]imidazo[1,5-a]pyrazin-1-yl}-N-[4-(trifluoromethyl)pyridin-2-yl]benzamide]
100 nM	16.8 nM	C=C[C@H]1OC(=O)N2C[C@H](c3nc(-c4ccc(C(=O)Nc5cc(C(F)(F)F)ccn5)cc4)c4c(N)nccn34)CC[C@@H]12 [Example 110, 4-{8-amino-3-[(1R,6R,8aS)-1-ethenyl-3-oxohexahydro[1,3]oxazolo[3,4-a]pyridin-6-yl]imidazo[1,5-a]pyrazin-1-yl}-N-[4-(trifluoromethyl)pyridin-2-yl]benzamide]
458 nM	5.2 nM	CN1CC[C@H]2CC[C@@H](c3nc(-c4ccc(C(=O)Nc5cc(C(F)(F)F)ccn5)cc4)c4c(N)nccn34)CN2C1=O [Example 111, 4-{8-amino-3-[(4aR,7R)-2-methyl-1-oxooctahydro-1H-pyrido[1,2-c]pyrimidin-7-yl]imidazo[1,5-a]pyrazin-1-yl}-N-[4-(trifluoromethyl)pyridin-2-yl]benzamide]
415 nM	0.57 nM	Nc1nccn2c([C@@H]3CC[C@H]4CCC(=O)N4C3)nc(-c3ccc(C(=O)Nc4cc(C(F)(F)F)ccn4)cc3Cl)c12 [Example 112, 4-{8-amino-3-[(6R,8aS)-3-oxooctahydroindolizin-6-yl]imidazo[1,5-a]pyrazin-1-yl}-3-chloro-N-[4-(trifluoromethyl)pyridin-2-yl]benzamide]
587 nM	831 nM	CC(F)(F)c1cc(C(=O)Nc2cc(C(F)(F)F)ccn2)ccc1-c1nc([C@@H]2CC[C@H]3CCC(=O)N3C2)n2ccnc(N)c12 [Example 114, 4-{8-amino-3-[(6R,8aS)-3-oxooctahydroindolizin-6-yl]imidazo[1,5-a]pyrazin-1-yl}-3-(1,1-difluoroethyl)-N-[4-(trifluoromethyl)pyridin-2-yl]benzamide]
1690 nM	0.67 nM	CCOc1cc(C(=O)Nc2cc(C(F)(F)F)n(C)n2)c(F)cc1-c1nc([C@@H]2CC[C@H]3CCC(=O)N3C2)n2c(Cl)cnc(N)c12 [Example 115, 4-(8-amino-5-chloro-3-((6R,8aS)-3-oxooctahydroindolizin-6-yl)imidazo[1,5-a]pyrazin-1-yl)-5-ethoxy-2-fluoro-N-(1-methyl-5-(trifluoromethyl)-1H-pyrazol-3-yl)benzamide]
102 nM	2.1 nM	N#Cc1cnc(NC(=O)c2ccc(-c3nc([C@@H]4CC[C@H]5CCC(=O)N5C4)n4ccnc(N)c34)cc2)cc1C(F)(F)F [Example 117, 4-{8-amino-3-[(6R,8aS)-3-oxooctahydroindolizin-6-yl]imidazo[1,5-a]pyrazin-1-yl}-N-[5-cyano-4-(trifluoromethyl)pyridin-2-yl]benzamide]
832 nM	0.58 nM	Nc1nccn2c([C@@H]3CC[C@H]4CCC(=O)N4C3)nc(-c3ccc(C(=O)Nc4cc(C(F)(F)F)ccn4)cc3O)c12 [Example 118, 4-{8-amino-3-[(6R,8aS)-3-oxooctahydroindolizin-6-yl]imidazo[1,5-a]pyrazin-1-yl}-3-hydroxy-N-[4-(trifluoromethyl)pyridin-2-yl]benzamide]
451 nM	3.3 nM	Nc1nccn2c([C@@H]3CC[C@H]4CCC(=O)N4C3)nc(-c3ccc(C(=O)Nc4cc(C(F)(F)F)ccn4)nc3)c12 [Example 119, 5-{8-amino-3-[(6R,8aS)-3-oxooctahydroindolizin-6-yl]imidazo[1,5-a]pyrazin-1-yl}-N-[4-(trifluoromethyl)pyridin-2-yl]pyridine-2-carboxamide]
117 nM	4.8 nM	Cc1cc(C(F)(F)F)cc(NC(=O)c2ccc(-c3nc([C@@H]4CC[C@H]5CCC(=O)N5C4)n4ccnc(N)c34)cc2)n1 [Example 120, 4-{8-amino-3-[(6R,8aS)-3-oxooctahydroindolizin-6-yl]imidazo[1,5-a]pyrazin-1-yl}-N-[6-methyl-4-(trifluoromethyl)pyridin-2-yl]benzamide]
719 nM	6.3 nM	N#Cc1cc(C(=O)Nc2cc(C(F)(F)F)ccn2)ccc1-c1nc([C@@H]2CC[C@H]3CCC(=O)N3C2)n2ccnc(N)c12 [Example 123, 4-{8-amino-3-[(6R,8aS)-3-oxooctahydroindolizin-6-yl]imidazo[1,5-a]pyrazin-1-yl}-3-cyano-N-[4-(trifluoromethyl)pyridin-2-yl]benzamide]
≥ 10000 nM	347 nM	NC(=O)c1cc(C(=O)Nc2cc(C(F)(F)F)ccn2)ccc1-c1nc([C@@H]2CC[C@H]3CCC(=O)N3C2)n2ccnc(N)c12 [Example 124, 4-{8-amino-3-[(6R,8aS)-3-oxooctahydroindolizin-6-yl]imidazo[1,5-a]pyrazin-1-yl}-N~1~-[4-(trifluoromethyl)pyridin-2-yl]benzene-1,3-dicarboxamide]
645 nM	278 nM	CC(C)c1cc(C(F)(F)F)cc(NC(=O)c2ccc(-c3nc([C@@H]4CC[C@H]5CCC(=O)N5C4)n4ccnc(N)c34)cc2)n1 [Example 125, 4-{8-amino-3-[(6R,8aS)-3-oxooctahydroindolizin-6-yl]imidazo[1,5-a]pyrazin-1-yl}-N-[6-(1-methylethyl)-4-(trifluoromethyl)pyridin-2-yl]benzamide]
5160 nM	83.5 nM	Nc1nccn2c([C@@H]3CC[C@H]4CCC(=O)N4C3)nc(-c3ccc(C(=O)Nc4cc(C(F)(F)F)ccn4)cc3C(=O)O)c12 [Example 127, 2-{8-amino-3-[(6R,8aS)-3-oxooctahydroindolizin-6-yl]imidazo[1,5-a]pyrazin-1-yl}-5-{[4-(trifluoromethyl)pyridin-2-yl]carbamoyl}benzoic acid]
1160 nM	0.27 nM	CCOc1cc(C(=O)Nc2cc(C(F)(F)F)ccn2)ccc1-c1nc([C@@H]2CC[C@H]3CCC(=O)N3C2)n2c(Cl)cnc(N)c12 [Example 128, 4-{8-amino-5-chloro-3-[(6R,8aS)-3-oxooctahydroindolizin-6-yl]imidazo[1,5-a]pyrazin-1-yl}-3-ethoxy-N-[4-(trifluoromethyl)pyridin-2-yl]benzamide]
39.3 nM	81.2 nM	COc1cccc(NC(=O)c2ccc(-c3nc([C@@H]4CC[C@H]5CCC(=O)N5C4)n4ccnc(N)c34)cc2)n1 [Example 129, 4-{8-amino-3-[(6R,8aS)-3-oxooctahydroindolizin-6-yl]imidazo[1,5-a]pyrazin-1-yl}-N-(6-methoxypyridin-2-yl)benzamide]
728 nM	2.5 nM	COc1cc(C(=O)Nc2cc(C(F)(F)F)ccn2)c(F)cc1-c1nc([C@@H]2CC[C@H]3CCC(=O)N3C2)n2ccnc(N)c12 [Example 130, 4-{8-amino-3-[(6R,8aS)-3-oxooctahydroindolizin-6-yl]imidazo[1,5-a]pyrazin-1-yl}-2-fluoro-5-methoxy-N-[4-(trifluoromethyl)pyridin-2-yl]benzamide]
2780 nM	0.74 nM	CCOc1cc(C(=O)Nc2cc(C(F)(F)F)n(C)n2)ccc1-c1nc([C@@H]2CC[C@H]3CCC(=O)N3C2)n2ccnc(N)c12 [Example 131, 4-{8-amino-3-[(6R,8aS)-3-oxooctahydroindolizin-6-yl]imidazo[1,5-a]pyrazin-1-yl}-3-ethoxy-N-[1-methyl-5-(trifluoromethyl)-1H-pyrazol-3-yl]benzamide]
1490 nM	1.2 nM	COc1cc(C(=O)Nc2cc(C(F)(F)F)ccn2)c(F)cc1-c1nc([C@@H]2CC[C@H]3CCC(=O)N3C2)n2c(Cl)cnc(N)c12 [Example 132, 4-{8-amino-5-chloro-3-[(6R,8aS)-3-oxooctahydroindolizin-6-yl]imidazo[1,5-a]pyrazin-1-yl}-2-fluoro-5-methoxy-N-[4-(trifluoromethyl)pyridin-2-yl]benzamide]
1600 nM	0.28 nM	COc1cc(C(=O)Nc2cc(C(F)(F)F)ccn2)cc(F)c1-c1nc([C@@H]2CC[C@H]3CCC(=O)N3C2)n2ccnc(N)c12 [Example 134, 4-{8-amino-3-[(6R,8aS)-3-oxooctahydroindolizin-6-yl]imidazo[1,5-a]pyrazin-1-yl}-3-fluoro-5-methoxy-N-[4-(trifluoromethyl)pyridin-2-yl]benzamide]
2150 nM	0.23 nM	CCOc1cc(C(=O)Nc2cc(C(F)(F)F)n(C)n2)ccc1-c1nc([C@@H]2CC[C@H]3CCC(=O)N3C2)n2c(Cl)cnc(N)c12 [Example 135, 4-{8-amino-5-chloro-3-[(6R,8aS)-3-oxooctahydroindolizin-6-yl]imidazo[1,5-a]pyrazin-1-yl}-3-ethoxy-N-[1-methyl-5-(trifluoromethyl)-1H-pyrazol-3-yl]benzamide]
1430 nM	0.78 nM	CCOc1cc(C(=O)Nc2cc(C3CC3)ccn2)c(F)cc1-c1nc([C@@H]2CC[C@H]3CCC(=O)N3C2)n2c(Cl)cnc(N)c12 [Example 136, 4-{8-amino-5-chloro-3-[(6R,8aS)-3-oxooctahydroindolizin-6-yl]imidazo[1,5-a]pyrazin-1-yl}-N-(4-cyclopropylpyridin-2-yl)-5-ethoxy-2-fluorobenzamide]
1200 nM	2 nM	CCOc1cc(C(=O)Nc2cc(C3CC3)ccn2)c(F)cc1-c1nc([C@@H]2CC[C@H]3CCC(=O)N3C2)n2ccnc(N)c12 [Example 137, 4-{8-amino-3-[(6R,8aS)-3-oxooctahydroindolizin-6-yl]imidazo[1,5-a]pyrazin-1-yl}-N-(4-cyclopropylpyridin-2-yl)-5-ethoxy-2-fluorobenzamide]
